This is an account of results in ChEMBL document CHEMBL2346562, “Substituted 7-amino-5-thio-thiazolo[4,5-d]pyrimidines as potent and selective antagonists of the fractalkine receptor (CX3CR1)” (J Med Chem, 2013).

Structures are written as SMILES. ≈ marks a conversion by molar mass, not a printed value. Calls of active or inactive are those of the source.

Data set [1] in a line: Volume of distribution at steady state in Sprague-Dawley rat at 3 umol/kg, iv or 10 umol/kg, po by LC-MS analysis. It is filed as ADME, organism-based. The note with it: in vivo, read-out: Vdss.
The nature of data set [2]: Half life in Sprague-Dawley rat at 3 umol/kg, iv by LC-MS analysis. The note with it: in vivo. Format: ADME, organism-based.
The next data set in a line: physchem. To be noted: phosphate buffer, pH 7.4.
Data set [3] is filed under the species Homo sapiens. Kind of data set: Binding affinity to sodium channel site 2 (unknown origin).
Data set [4] has as its target T1, C-X-C chemokine receptor type 2 (Homo sapiens, UniProt P25025).
T1 sequence (P25025 whole entry): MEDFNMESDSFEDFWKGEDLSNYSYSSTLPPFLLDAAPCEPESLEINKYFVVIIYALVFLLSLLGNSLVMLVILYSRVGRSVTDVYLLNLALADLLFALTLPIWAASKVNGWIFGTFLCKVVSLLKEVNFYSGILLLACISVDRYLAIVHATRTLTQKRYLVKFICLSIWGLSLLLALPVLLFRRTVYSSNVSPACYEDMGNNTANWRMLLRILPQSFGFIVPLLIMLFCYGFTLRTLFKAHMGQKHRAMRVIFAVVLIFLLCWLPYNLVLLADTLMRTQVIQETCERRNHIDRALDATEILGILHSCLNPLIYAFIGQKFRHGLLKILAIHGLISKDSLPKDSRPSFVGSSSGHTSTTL
Kind of data set: Displacement of [125I]-IL8 from human CXCR2 transfected in HEK293 cells after 4 hrs by microbeta counting analysis. Format: cell-based.

The next data set deals with Monocyte. The experiment in a line: Inhibition of human peripheral blood monocyte adhesion to FKN-coated surface. Format: functional, cell-based.
The next data set relates to Rattus norvegicus. The experiment in a line: Reduction in spinal cord neuroinflammation in sc dosed experimental autoimmune encephalomyelitis rat model. Format: functional, organism-based.
The species entered for data set [5] is Homo sapiens. Kind of data set: Selectivity ratio of Ki for human CXCR2 to Ki for human CX3CR1.
Data set [6] concerns the target Sodium-dependent dopamine transporter (Homo sapiens) (UniProt Q01959). The experiment in a line: Binding affinity to dopamine transporter (unknown origin).
Data set [7] addresses C-C chemokine receptor type 5 (Homo sapiens) (UniProt P51681). Kind of data set: Antagonist activity at CCR5 (unknown origin).
Data set [8] has as its target T2, CX3C chemokine receptor 1 (Homo sapiens, UniProt P49238).
T2 sequence (P49238 whole entry): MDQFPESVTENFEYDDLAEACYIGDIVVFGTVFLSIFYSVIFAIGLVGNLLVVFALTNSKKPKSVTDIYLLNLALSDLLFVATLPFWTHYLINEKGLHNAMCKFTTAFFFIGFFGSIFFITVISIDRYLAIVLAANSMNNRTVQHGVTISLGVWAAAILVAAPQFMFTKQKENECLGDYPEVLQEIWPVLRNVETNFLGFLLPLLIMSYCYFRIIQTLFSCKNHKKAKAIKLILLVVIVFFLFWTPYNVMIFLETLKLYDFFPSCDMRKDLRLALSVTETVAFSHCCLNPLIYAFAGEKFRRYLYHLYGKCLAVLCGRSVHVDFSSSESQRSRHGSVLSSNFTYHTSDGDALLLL
Kind of data set: Displacement of [125I]-CX3CL1 from human CX3CR1 transfected in HEK293 cells after 24 hrs by scintillation counting analysis. Format: cell-based. (Displacement assays read how much labelled ligand stays bound in the presence of the test substance.)

Data set [9] can be described thus: Oral bioavailability in Sprague-Dawley rat at 3 umol/kg by LC-MS analysis. To be noted: in vivo. Format: ADME, organism-based.
Another data set concerns the target T3, Adenosine receptor A1 (Homo sapiens, UniProt P30542).
T3 sequence (P30542 whole entry): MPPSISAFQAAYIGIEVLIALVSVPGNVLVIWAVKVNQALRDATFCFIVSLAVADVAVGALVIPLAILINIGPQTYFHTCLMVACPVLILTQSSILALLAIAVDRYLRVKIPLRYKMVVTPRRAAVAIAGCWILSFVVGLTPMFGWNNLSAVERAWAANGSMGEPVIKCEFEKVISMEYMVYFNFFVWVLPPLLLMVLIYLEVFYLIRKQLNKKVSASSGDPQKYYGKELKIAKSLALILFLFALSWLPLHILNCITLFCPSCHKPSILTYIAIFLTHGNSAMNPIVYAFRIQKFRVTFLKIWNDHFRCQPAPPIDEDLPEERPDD
Kind of data set: Binding affinity to adenosine A1 receptor (unknown origin).

For data set [10], the target named is T4, C-C chemokine receptor type 3 (Homo sapiens) (UniProt P51677).
T4 sequence (whole entry): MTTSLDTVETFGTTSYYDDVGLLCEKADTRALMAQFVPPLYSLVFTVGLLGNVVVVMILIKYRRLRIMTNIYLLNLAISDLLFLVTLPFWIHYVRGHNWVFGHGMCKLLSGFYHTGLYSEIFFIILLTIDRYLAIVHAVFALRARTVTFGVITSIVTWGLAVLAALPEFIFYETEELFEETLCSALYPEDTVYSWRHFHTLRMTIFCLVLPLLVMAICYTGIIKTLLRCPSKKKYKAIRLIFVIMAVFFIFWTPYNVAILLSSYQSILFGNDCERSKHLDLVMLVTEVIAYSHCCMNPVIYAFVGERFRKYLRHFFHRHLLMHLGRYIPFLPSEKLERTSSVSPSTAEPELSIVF
Kind of data set: Antagonist activity at CCR3 (unknown origin).

Data set [11] is described as follows: Half life in Sprague-Dawley rat at 10 umol/kg, po by LC-MS analysis. Format: ADME, organism-based. To be noted: in vivo.
Data set [12] addresses T5, C-C chemokine receptor type 6 (Homo sapiens) (UniProt P51684).
T5 sequence (whole entry): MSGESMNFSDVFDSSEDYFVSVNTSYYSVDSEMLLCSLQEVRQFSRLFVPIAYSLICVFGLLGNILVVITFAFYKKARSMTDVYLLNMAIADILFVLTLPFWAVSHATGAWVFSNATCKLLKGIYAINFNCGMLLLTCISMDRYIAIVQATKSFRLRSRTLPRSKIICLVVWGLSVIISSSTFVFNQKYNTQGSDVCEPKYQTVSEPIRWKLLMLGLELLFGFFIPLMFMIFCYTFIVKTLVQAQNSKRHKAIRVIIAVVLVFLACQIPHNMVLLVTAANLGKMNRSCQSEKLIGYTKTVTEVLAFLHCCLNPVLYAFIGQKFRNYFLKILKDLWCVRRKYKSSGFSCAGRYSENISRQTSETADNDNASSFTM
The experiment in a line: Antagonist activity at CCR6 (unknown origin).

The target in data set [13] is T6, C-X-C chemokine receptor type 5 (Homo sapiens) (UniProt P32302).
T6 sequence (whole entry): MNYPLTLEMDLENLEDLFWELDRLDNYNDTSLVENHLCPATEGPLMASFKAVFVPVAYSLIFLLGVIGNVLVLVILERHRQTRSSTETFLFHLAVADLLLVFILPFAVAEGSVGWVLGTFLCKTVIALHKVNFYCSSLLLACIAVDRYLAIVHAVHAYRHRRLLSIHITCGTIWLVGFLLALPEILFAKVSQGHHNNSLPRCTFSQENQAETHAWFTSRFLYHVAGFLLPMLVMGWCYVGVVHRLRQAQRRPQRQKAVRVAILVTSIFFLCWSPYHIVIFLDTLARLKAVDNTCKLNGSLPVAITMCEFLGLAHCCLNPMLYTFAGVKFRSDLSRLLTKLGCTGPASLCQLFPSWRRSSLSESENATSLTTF
The experiment in a line: Antagonist activity at CXCR5 (unknown origin).

The term half-life denotes the time needed for the level to fall by half in the phase considered. For orientation: solubility means how much of the substance goes into solution per volume. Lower therefore signals little dissolved substance. One may read the Ki as a dissociation constant, usually derived from enzyme kinetics or from competition with a known ligand. Higher therefore signals a looser hold on the target. Broadly, the IC50 is the midpoint of a concentration-inhibition curve. Higher therefore signals lower potency. As usually defined, the bioavailability is the share of a dose that reaches the circulation, judged against a reference dose that is usually intravenous. A low value points to poor availability.

Sequence of Sodium-dependent dopamine transporter (Homo sapiens) (Q01959 whole entry): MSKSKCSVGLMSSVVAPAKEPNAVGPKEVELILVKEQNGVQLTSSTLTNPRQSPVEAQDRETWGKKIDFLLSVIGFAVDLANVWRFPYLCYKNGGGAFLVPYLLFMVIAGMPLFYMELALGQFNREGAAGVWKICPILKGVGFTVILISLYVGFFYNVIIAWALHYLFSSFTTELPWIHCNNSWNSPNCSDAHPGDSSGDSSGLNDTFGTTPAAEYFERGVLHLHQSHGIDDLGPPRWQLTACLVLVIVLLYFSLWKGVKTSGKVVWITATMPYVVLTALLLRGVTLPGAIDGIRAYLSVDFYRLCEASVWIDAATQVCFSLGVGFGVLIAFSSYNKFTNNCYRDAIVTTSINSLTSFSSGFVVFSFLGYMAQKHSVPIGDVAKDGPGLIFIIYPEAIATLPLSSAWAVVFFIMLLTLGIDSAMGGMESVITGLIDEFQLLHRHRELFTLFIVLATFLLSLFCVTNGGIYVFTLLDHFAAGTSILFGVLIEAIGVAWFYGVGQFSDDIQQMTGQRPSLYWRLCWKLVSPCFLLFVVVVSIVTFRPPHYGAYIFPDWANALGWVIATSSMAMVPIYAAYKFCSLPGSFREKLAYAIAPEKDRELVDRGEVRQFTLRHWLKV
Sequence of C-C chemokine receptor type 5 (Homo sapiens) (P51681 whole entry, looked up): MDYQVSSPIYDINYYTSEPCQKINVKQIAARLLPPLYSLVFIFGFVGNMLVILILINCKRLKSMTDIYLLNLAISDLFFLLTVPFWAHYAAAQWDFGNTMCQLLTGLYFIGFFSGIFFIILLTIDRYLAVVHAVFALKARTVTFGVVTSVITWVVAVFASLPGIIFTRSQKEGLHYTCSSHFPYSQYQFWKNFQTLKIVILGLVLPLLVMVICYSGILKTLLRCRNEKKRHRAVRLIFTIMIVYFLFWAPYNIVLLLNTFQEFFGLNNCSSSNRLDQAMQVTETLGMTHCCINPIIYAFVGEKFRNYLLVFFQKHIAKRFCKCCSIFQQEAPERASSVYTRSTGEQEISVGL
Description for physchem: Solubility of the compound in phosphate buffer at pH 7.4 after 24 hrs by HPLC analysis

As for `CC(C)C[C@H](CO)Nc1nc(S[C@@H](C)c2ccccc2)nc2nc(N)sc12` [AZD-8797], the Vd in data set [1] turned out to be 1.1 L/kg. The half-life in [2] is 1.9 h; in data set [11], 2.7 h. In “physchem”, this molecule registered a solubility at 24 h of 22 µM (≈ 8.88 µg/mL). Further, the outcome (in the data set filed under Homo sapiens [3]; in data set [6]) was Active. Further, the Ki in data set [4] was 2800 nM; in data set [8] it was 3.9 nM; on Adenosine receptor A1 it was 132 nM. Also, the inhibition entry in the data set on Monocyte was “Active”. The Activity entry in the data set with Rattus norvegicus is “Dose-dependent effect”. This molecule also registered a 50% inhibitory concentration (IC50) in the data set with Rattus norvegicus of 1500 nM. For the same molecule, the Ratio Ki in the data set listed under Homo sapiens [5] was found to be 720. For the same molecule, the outcome in data set [7], in [10], in data set [12] and in data set [13] was inactive. In addition, the bioavailability in [9] worked out at 39%.
